Data: patent publication US20240150370A1, “BICYCLIC PYRIDINE DERIVATIVE” (Sumitomo Pharma Co., Ltd., priority 0001, published 2024)
Counter-ions that a name gives are not always drawn.

What was measured:
human TAAR1 receptor = human TAAR1 receptor (Homo sapiens (Human), UniProt Q96RJ0); assay: Evaluation of agonist activity on human TAAR1 receptor (cAMP assay); format: cell-based; conditions: cAMP in human TAAR1-expressing CHO cells, relative to 100 μM tyramine; for activation at 0.1 µM / activation at 1 µM / activation at 10 µM: CHO, 0.5 h, read-out: TAAR1 agonist activity at each concentration (%); for TAAR1 agonist activity at each concentration (%): dihydrochloride
Sequence of human TAAR1 receptor (Q96RJ0 whole entry, the tested form may be a part): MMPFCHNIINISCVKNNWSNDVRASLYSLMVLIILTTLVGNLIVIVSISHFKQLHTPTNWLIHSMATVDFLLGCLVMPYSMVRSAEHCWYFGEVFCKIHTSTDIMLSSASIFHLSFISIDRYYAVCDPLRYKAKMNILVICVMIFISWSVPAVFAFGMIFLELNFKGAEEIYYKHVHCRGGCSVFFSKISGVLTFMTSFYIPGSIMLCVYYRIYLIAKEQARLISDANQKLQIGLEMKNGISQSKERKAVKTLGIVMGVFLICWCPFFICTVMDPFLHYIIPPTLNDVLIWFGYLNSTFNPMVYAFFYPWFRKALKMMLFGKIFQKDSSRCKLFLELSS
Procedure: TAAR1 is a G protein-coupled receptor that binds to G proteins (Gas), and activation of the TAAR1 receptor by agonists induces an increase in intracellular cAMP levels. Therefore, the agonist activity of the sample on the human TAAR1 receptor was evaluated using the cAMP assay method.
cAMP Hunter™ CHO-K1 TAAR1 Gs Cell Line, a cell expressing human TAAR1 receptor, was purchased. Human TAAR1-expressing CHO cells were seeded in a 96-well plate, and after culturing for 24 hours, a sample dissolved in DMSO was added and incubated at 37° C. for 30 minutes. A sample for cAMP measurement was prepared according to the cAMPHiRange kit protocol. The amount of cAMP produced by the sample was measured by time-resolved fluorescence using EnVision (excitation wavelength: 330 nm, fluorescence wavelength […]/665 nm).
Sample %=100×{(Csamp)−(Cblank)}/{(Ctyramine)−(Cblank)} • Csamp: count of sample, Ctyramine: count of 100 μM tyramine, Cblank: count of blank

hERG channel = hERG channel (Homo sapiens (Human), UniProt Q12809); assay: Evaluation of hERG channel inhibitory activity (whole-cell patch clamp, hERG-CHO cells); format: cell-based; conditions: autopatch clamp, read-out: hERG inhibition IC50
Sequence of hERG channel (Q12809 whole entry): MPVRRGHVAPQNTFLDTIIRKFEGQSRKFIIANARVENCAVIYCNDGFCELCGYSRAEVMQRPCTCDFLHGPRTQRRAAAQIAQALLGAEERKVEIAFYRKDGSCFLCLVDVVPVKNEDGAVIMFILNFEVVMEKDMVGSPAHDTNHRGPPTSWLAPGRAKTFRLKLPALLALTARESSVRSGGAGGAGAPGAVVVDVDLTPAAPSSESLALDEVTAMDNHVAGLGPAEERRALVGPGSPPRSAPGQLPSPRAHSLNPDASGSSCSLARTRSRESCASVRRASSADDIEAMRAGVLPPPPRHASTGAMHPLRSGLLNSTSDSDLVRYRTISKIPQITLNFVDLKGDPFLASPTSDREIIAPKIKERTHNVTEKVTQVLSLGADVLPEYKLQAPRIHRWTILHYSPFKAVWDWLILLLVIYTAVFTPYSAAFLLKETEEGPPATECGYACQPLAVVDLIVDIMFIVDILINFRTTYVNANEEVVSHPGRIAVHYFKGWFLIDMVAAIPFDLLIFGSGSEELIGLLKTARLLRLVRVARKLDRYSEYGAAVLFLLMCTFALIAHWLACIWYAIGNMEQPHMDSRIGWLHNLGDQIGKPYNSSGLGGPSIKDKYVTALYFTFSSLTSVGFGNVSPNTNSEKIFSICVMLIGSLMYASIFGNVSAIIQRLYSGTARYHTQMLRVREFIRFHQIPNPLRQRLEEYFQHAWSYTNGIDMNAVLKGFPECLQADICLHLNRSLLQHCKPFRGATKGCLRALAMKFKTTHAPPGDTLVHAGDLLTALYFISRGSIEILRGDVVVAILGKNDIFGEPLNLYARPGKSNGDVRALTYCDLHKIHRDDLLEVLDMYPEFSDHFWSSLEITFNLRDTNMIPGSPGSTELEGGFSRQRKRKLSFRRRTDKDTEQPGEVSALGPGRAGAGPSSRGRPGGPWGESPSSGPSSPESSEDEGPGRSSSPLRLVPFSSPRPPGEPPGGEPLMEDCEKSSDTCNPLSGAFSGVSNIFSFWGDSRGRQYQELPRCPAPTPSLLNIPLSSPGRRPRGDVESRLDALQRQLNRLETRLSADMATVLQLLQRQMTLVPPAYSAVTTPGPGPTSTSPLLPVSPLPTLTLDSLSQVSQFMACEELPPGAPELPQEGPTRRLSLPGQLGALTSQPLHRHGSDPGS

activation at 0.1 µM (human TAAR1 receptor; 100 nM) [%] | activation at 1 µM (human TAAR1 receptor; 1000 nM) [%] | activation at 10 µM (human TAAR1 receptor; 10000 nM) [%] | TAAR1 agonist activity at each concentration (%) (human TAAR1 receptor; 100 nM) | TAAR1 agonist activity at each concentration (%) (human TAAR1 receptor; 1000 nM) | TAAR1 agonist activity at each concentration (%) (human TAAR1 receptor; 10000 nM) | SMILES | IC50 (hERG channel) [µM]
54 | 85 | 94 | – | – | – | Cc1ccc2c(n1)C(CN)C1(CC1)O2 (racemic) [Example 90, rac-1-(5′-methyl-3′H-spiro[cyclopropane-1,2′-furo[3,2-b]pyridine]-3′-yl)methanamine dihydrochloride] | 71.8
24 | 63 | 75 | – | – | – | C[C@H]1Oc2cc(F)cnc2[C@@H]1CN [Example 8, 1-[(2R,3S)-6-fluoro-2-methyl-2,3-dihydrofuro[3,2-b]pyridin-3-yl]methanamine dihydrochloride] | > 100
29 | 73 | 87 | – | – | – | Cc1ccc2c(n1)[C@H](CN)C[C@@H](C)O2 [Example 18] | > 100
11 | 56 | 84 | – | – | – | CC[C@H]1Oc2cccnc2[C@@H]1CN (stereo in doubt) [Example 22] | > 100
11 | 38 | 65 | – | – | – | COc1ccc2c(n1)C(CN)CCC2 (racemic) [Example 88, rac-1-(2-methoxy-5,6,7,8-tetrahydroquinolin-8-yl)methanamine dihydrochloride] | > 100
25 | 71 | 101 | – | – | – | NC[C@H]1C[C@@H](c2ccccc2)Oc2cccnc21 (racemic) [Example 24] | 6.9
10 | 46 | 77 | – | – | – | CNC[C@H]1c2nccc(C)c2O[C@@H]1C [Example 51] | > 100
25 | 57 | 68 | – | – | – | NC[C@@H]1CCSc2cccnc21 (single isomer, unassigned) [Example 40, dihydrochloride] | > 100
13 | 51 | 77 | – | – | – | CNCC1CCSc2cccnc21 (racemic) [Example 45, rac-1-(3,4-dihydro-2H-thiopyrano[3,2-b]pyridin-4-yl)-N-methylmethanamine dihydrochloride] | > 100
52 | 86 | 93 | – | – | – | C[C@H]1Oc2ccc(Cl)nc2[C@@H]1CN [Example 38, 1-[(2R,3S)-5-chloro-2-methyl-2,3-dihydrofuro[3,2-b]pyridin-3-yl]methanamine dihydrochloride] | > 100
10 | 48 | 83 | – | – | – | Cc1ccnc2c1O[C@H](C)[C@H]2CN [Example 34, 1-[(2R,3S)-2,7-dimethyl-2,3-dihydrofuro[3,2-b]pyridin-3-yl]methanamine dihydrochloride] | > 100
6 | 37 | 76 | – | – | – | C[C@@H]1Sc2cccnc2[C@@H]1CN (racemic) [Example 16] | 68.6
– | 49 | 72 | 13 | – | – | C[C@H]1Oc2cc(Cl)cnc2[C@@H]1CN [Example 37, 1-[(2R,3S)-6-chloro-2-methyl-2,3-dihydrofuro[3,2-b]pyridin-3-yl]methanamine dihydrochloride] | > 100
12 | 45 | 63 | – | – | – | CNC[C@H]1c2ncc(Cl)cc2O[C@@H]1C [Example 50] | > 100
59 | 91 | 99 | – | – | – | Cc1ccc2c(n1)C(CN)C(C)(C)O2 (stereo not drawn) [Example 83] | > 100
35 | 74 | 91 | – | – | – | CC1(C)Oc2cccnc2C1CN (stereo not drawn) [Example 23] | > 100
13 | 48 | 79 | – | – | – | CC[C@@H]1Oc2cccnc2[C@H]1CN (stereo in doubt) [Example 44, rel-1-[(2S,3R)-2-ethyl-2,3-dihydrofuro[3,2-b]pyridin-3-yl]methanamine dihydrochloride] | > 100
24 | 67 | 90 | – | – | – | C[C@H]1Sc2cccnc2[C@@H]1CN (racemic) [Example 15] | > 100
15 | 53 | 70 | – | – | – | NCC1CCSc2cccnc21 (stereo not drawn) [Example 9] | > 100
2 | 21 | 63 | – | – | – | NC[C@@H]1C[C@@H](c2ccccc2)Oc2cccnc21 (racemic) [Example 25] | 5.8
70 | 101 | 96 | – | – | – | NC[C@H]1c2ncccc2OC12CC2 (single isomer, unassigned) [Example 97, rel-1-[(3'S)-3′H-spiro[cyclopropane-1,2′-furo[3,2-b]pyridine]-3′-yl]methanamine dihydrochloride] | > 100
25 | 63 | 75 | – | – | – | CNC[C@H]1c2ncc(F)cc2O[C@@H]1C [Example 49, 1-[(2R,3S)-6-fluoro-2-methyl-2,3-dihydrofuro[3,2-b]pyridin-3-yl]-N-methylmethanamine dihydrobromide] | > 100
– | – | – | 24 | 68 | 90 | CNC[C@@H]1C[C@@H](C)Oc2cccnc21 [Example 5, N-methyl-1-[(2R,4S)-2-methyl-3,4-dihydro-2H-pyrano[3,2-b]pyridin-4-yl]methanamine dihydrochloride] | > 100
16 | 57 | 75 | – | – | – | CNC[C@@H]1C[C@H](C)Oc2cccnc21 [Example 6] | > 100
51 | 93 | 104 | – | – | – | C[C@H]1Oc2ccc(F)nc2[C@@H]1CN [Example 29] | > 100
21 | 58 | 75 | – | – | – | Cc1ccc2c(n1)C(CN)CCS2 (stereo not drawn) [Example 12] | > 100
20 | 58 | 79 | – | – | – | Cc1ccc2c(n1)C(CN)CS2 (stereo not drawn) [Example 11] | > 100
40 | 81 | 95 | – | – | – | C[C@H]1Oc2cccnc2[C@@H]1CN [Example 27, 1-[(2R,3S)-2-methyl-2,3-dihydrofuro[3,2-b]pyridin-3-yl]methanamine dihydrochloride] | > 100
57 | 82 | 87 | – | – | – | Cc1ccc2c(n1)[C@H](CN)[C@@H](C)O2 [Example 35, 1-[(2R,3S)-2,5-dimethyl-2,3-dihydrofuro[3,2-b]pyridin-3-yl]methanamine] | > 100
7 | 37 | 75 | – | – | – | C[C@@H]1COc2cccnc2[C@@H]1CN (stereo in doubt) [Example 2, rac-1-[(3S,4S)-3-methyl-3,4-dihydro-2H-pyrano[3,2-b]pyridin-4-yl]methanamine dihydrochloride] | > 100
